Data as given in patent US8349845B2, “Thiazolopyrimidines for use in therapy” (Sosei Group Corporation, priority 2005, dated 2013).

Tests used:
CCI rats [1] = assay: Single oral dose study, mechanical allodynia (von Frey PWT) in rat chronic constriction injury (CCI) model; type: in vivo; settings: 20 mg/kg p.o.; for paw withdrawal threshold (PWT): mean±S.E.M.
Method: The rat chronic constriction injury (CCI) model was prepared following the standard protocols (Bennett and Xie, 1988). Briefly, male Sprague-Dawley rats, weighing 150-175 gram at arrival, were anaesthetized with a 5% isofluorane/95% oxygen gas mixture followed by an i.p. injection of sodium pentobarbitone (50 mg/kg). The lateral side of the left hind limb was shaved and sterilized with 75% ethanol. An incision of about 1 cm was made to expose the sciatic nerve. Four loose ligations with 4-0 suture silk were made on the sciatic nerve. The wound was closed in layers with silk suture and the animals were placed in a recovering chamber with the temperature controlled at 30° C. The animals were then returned to their home cage after complete return of consciousness and the return of free movement. A dose of amoxicillin (0.1 ml, 15 mg) was routinely injected intraperitoneally after surgery to prevent infection. In CCI rats, the assessment of paw withdrawal threshold (PWT) in response to the mechanical stimulation started 14 days after surgery. […] The PWT was measured using a series of graduated von Frey hairs. The animals were placed in individual perspex boxes on a raised metal mesh for at least 30 min before the test. Starting from a filament of lower force (1 g), each filament was applied perpendicularly to the centre of the paw pad until it slightly bends for 6 seconds. If the animal withdrew or lifted the paw upon stimulation, then a hair with force immediately lower than that tested would be used. If no response was observed, then a hair with force immediately higher would be used. The lowest amount of force required to induce reliable responses (positive in 3 out of 5 trials) was recorded as the value of PWT. A suspension of Compound 1 was made with 5% DMSO in saline (10 mg/ml). The suspension was sonicated for at least 20 min before application. All data in this study are presented as mean±S.E.M. and are analysed with the student-t-test or one way ANOVA as appropriate. The significance level was set at P<0.05.

[2] = tested on: rat Brennan model of surgical pain; assay: PWT in the rat Brennan model of surgical pain; type: in vivo
Method: The surgical pain model was prepared as described by Brennan et al (1996). Briefly, the rat was anaesthetised with 5% isofluorane in oxygen (2 L/min) for induction followed by an intravenous injection of sodium pentobarbitone (50 mg/kg) prior to surgery. The surgery was carried out under aseptic routines. The left hind paw was sterilized with 75% ethanol solution. A 1.5 cm longitudinal incision was made with a scalpel from about 0.5 cm of the heel edge towards the toes. The plantaris muscle and fascia were elevated and incised longitudinally but the structure of these tissues kept intact. After complete hemostasis with pressure, the skin was closed with stitches of 5-0 suture silk. The animal was routinely given an intraperitoneal injection of Amoxipen 15 mg/kg for prevention of infection after surgery. After surgery, the animals were placed in a temperature-controlled recovering chamber until full return of conscience and voluntary movement, before being returned to their home cages.

[3] = tested on: rats with diabetic neuropathy; assay: PWT in rats with streptozotocin-induced diabetic neuropathy; type: in vivo, rat
Method: Under isofluorane anaesthesia, adult male Sprague-Dawley rats (150-200 g) were given an intraperitoneal injection of streptozotocin (75 mg/kg, Calbiochem). After injection, particular care was taken to ensure that water and food were available at all time and the beddings were changed frequently. A week after streptozocin injection, the blood glucose content was examined using Advantage II with Accutech strips (Roche). Only rats with blood glucose higher than 12 mM/L (216 mg/DL) were chosen for behavioural study. The assessment of neuropathic pain state using von Frey hairs was the same as described for Example 1. Rats with lowered PWT (<4 g) were used for either vehicle (1 ml/kg, p.o. or Compound 1 (1, 3, 10, and 30 mg/kg p.o.) dosing. The PWT was reassessed at 1, 2, 3, 4 and 6 hours after oral dosing.

[4] = tested on: mice with autoimmune neuropathy; settings: preclinical studies; cited from earlier work
[5] = tested on: ectopic discharge in CCI rats; assay: Chronic dosing, generation of ectopic discharge and PWT in CCI rats; type: in vivo, rat
Method: After confirmation of neuropathic pain state on day 16 post-surgery, the animals (4 for vehicle group and 4 for drug treatment group) were given either vehicle (5% DMSO in saline) or Compound 130 mg/kg p.o., twice a day for 8 days. At the end of the dosing protocol, the PWT was reassessed before the electrophysiological experiment. The sural nerve was repeatedly teased into fine bundles for examination. For a fibre with spontaneous activity, the recording lasted for at least 1 min; for a fiber without obvious spontaneous activity, the recording lasted for at least 30 sec. In each sural nerve, as many fibres as possible were teased and recorded (more than 150 bundles on average in one animal).

CCI rats [6] = assay: Tolerance liability in CCI model (PWT over 7 days of dosing); type: in vivo, rat
Method: The preparation of CCI model rats and the assessment of neuropathic pain state using von Frey hairs were as the same as described for Example 1. The PWT was assessed in the morning for 3 consecutive days prior to the surgery and on days 6, 14, 15 and 16 after surgery. Starting from day 16, the animals were either dosed with vehicle (5% DMSO in saline, 1 ml/kg) or Compound 130 mg/kg p.o., twice a day for 7 days. From day 16 onward, PWT was assessed thereafter every morning and 4 hours after dosing, up to day 23 post surgery.

[7] = tested on: ectopic discharge in CCI rats; assay: Acute administration, spontaneous ectopic discharge in sural nerve of CCI rats; type: in vivo, rat
Method: The preparation of CCI model rats and the assessment of neuropathic pain state were as described for Example 1. The electrophysiological experiments were performed on CCI rats with neuropathic pain states confirmed by von Frey hair testing as previously described. Compound 1 suspension was made in a vehicle containing 1% DMSO, 66% PEG200 and 33% saline to 5 mg/ml. Rats with neuropathic pain were anaesthetized with thiobutabarbital sodium (inactin, 120 mg/kg, i.p. for induction and thereafter 60 mg/kg, i.p. for maintenance, if necessary). The arterial blood pressure and heart rate were routinely monitored and rectal temperature was continuously monitored and maintained at a physiological range using a thermo-blanket system. The skin of the left hind limb was incised and stitched onto a stainless steel “O” ring to form an oil pool. The sural nerve was carefully exposed and repeatedly teased into small bundles containing only one or a few fibres and examined for spontaneous activity. In acute experiments, when an active fibre was found, a period of at least 20 min control recording was obtained. Subsequently, the effects of the vehicle and Compound 1 (5 mg/kg, i.v.) were examined. Activity was monitored for at least 40 minutes following administration of the drug. The frequency of the spontaneous activity was monitored online and analysed offline after experiment. For i.v. injection, Compound 1 suspension (5 mg/ml) was prepared using a vehicle made of 1% DMSO, 66% polyethelene glycol (PEG 200) and 33% normal saline. The suspension was then sonicated for 30 min before administration.

CCI rats [8] = assay: Dose-response study, mechanical allodynia (PWT) in CCI model; type: in vivo, rat; settings: CCI rats, 1, 3, 10, 30 mg/kg orally, 30-360 min after dosing
Method: The methods for preparing CCI animals and assessing mechanical allodynia using von Frey hairs were as described in Example 1. Four doses of Compound 1 (1, 3, 10, 30 mg/kg) were given orally and the PWT was reassessed at 30, 60, 120, 180, 240 and 360 min after dosing.

[9] = tested on: lipopolysaccharide-induced polyclonal antibody responses; settings: preclinical studies; cited from earlier work
[10] = doses higher than 3 mg/kg p.o., dose-dependent
[11] = CCI rats after chronic treatment

Compound: O=C1N=C2SCCN2C(=O)C1Cc1ccc(Cl)cc1 (stereo not shown) [Compound 1, 6-(p-chlorobenzyl)-5H-2,3,6,7-tetrahydro-5,7-dioxothiazolo[3,2-a]pyrimidine]
- duration of the effect on PWT (CCI rats [1]): > 6 h
- paw withdrawal threshold (PWT) (CCI rats [1]; 2 hours after dosing, P<0.05 vs vehicle): 2.6 ± 0.7 g
- paw withdrawal threshold (PWT) (CCI rats [1]; 3 hours after dosing, P<0.01 vs vehicle): 3.0 ± 0.7 g
- paw withdrawal threshold (PWT) (CCI rats [1]; 4 hours after dosing, P<0.001 vs vehicle): 6.3 ± 0.8 g
- paw withdrawal threshold (PWT) (CCI rats [1]; 6 hours after dosing, P<0.001 vs pre-dosing control): 4.0 ± 0.5 g
- time after dosing at which the effect on PWT was first observed [2]: 4 h
- time after dosing up to which the effect on PWT lasted [2]: up to 8 hours
- changes in PWT ([2]; 3 mg/kg, n=7, P>0.05): Neither vehicle (n=8) or Compound 1 at 3 mg/kg (n=7) produced significant changes in PWT
- analgesic effect after 6 hours ([2]; 10 mg/kg): had gone
- PWT ([2]; 10 mg/kg, at 4 hours, from control level 1.50±0.36 g, P<0.05): 2.60 ± 0.48 g
- PWT ([2]; 30 mg/kg, 6 hours post-dose, P<0.001 vs vehicle): 5.28 ± 0.66 g
- PWT ([2]; 30 mg/kg, 8 hours post-dose, P<0.001 vs vehicle): 4.16 ± 0.79 g
- PWT ([2]; 30 mg/kg, at 4 hours, from control level 1.82±3.8 g, P<0.001): 3.80 ± 0.44 g
- changes in PWT [2, 10]: significantly increased the PWT
- changes in PWT ([3]; 1 mg/kg p.o.): Neither vehicle or Compound 1 at 1 mg/kg produced significant changes in PWT
- changes in PWT [3, 10]: significantly increased the PWT
- kidney function [4]: restored kidney function
- PWT compared with vehicle-treated ([5]; 4 CCI rats, after 8 days of treatment p.o. twice a day): significantly higher
- averaged frequency of spontaneous activity [5, 11]: 888.9 ± 148.5 min⁻¹
- comparison of averaged frequency of spontaneous activity with vehicle group [5, 11]: failed to reveal significant difference
- fibres with spontaneous activity ([5]; among 633 fibres recorded from 4 treated rats (vehicle 197 of 602)): 48 fibres
- proportions of fibres with spontaneous activity ([5]; chronic treatment of CCI rats, vs vehicle, P<0.001 χ2 test): significantly reduced
- baseline PWT compared with vehicle group (CCI rats [6]; after the first day's treatment and throughout the 7 day dosing period, p.o. twice a day): higher than that observed in the vehicle group
- time for which CCI-induced mechanical allodynia is alleviated post-dose (CCI rats [6]; on repeat dosing): 12 h
- loss of efficacy in reversing lowered PWT (CCI rats [6]; over 7 days of treatment): no significant loss of efficacy
- ectopic discharge after injection ([7]; first CCI preparation, 5 mg/kg i.v., reduced from 682 imps/min): 426 imps/min
- firing rate of ectopic discharge, % of control ([7]; four fibres, after administration, P<0.01): 57.1±9.0 % of control
- average firing rate of ectopic discharge after administration ([7]; four fibres, before drug 489.7±125.8 imps/min, P<0.01): 307.6±113.4 imps/min
- ectopic discharge after injection ([7]; second CCI preparation, iv injection, reduced from 298 imps/min): 104 imps/min
- effect on PWT (CCI rats [8]): dose-dependently increased the PWT
- lipopolysaccharide-induced polyclonal antibody responses [9]: inhibited
